Measured values as given in PubChem BioAssay (NCI).
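Growth conditions: 96-well plates. Treatment: test compound, 48 hours, 5 concentrations. Analysis: linear interpolation between bracketing concentrations; unreached endpoints set to highest concentration. TGI is the concentration that stops growth completely.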

Experiments:
Assay in all cases: DTP human tumour cell line panel, 48 h
T-47D breast = tested on: T-47D breast
HOP-62 NSCLC = tested on: HOP-62 NSCLC
ACHN renal = tested on: ACHN renal
DU-145 prostate = tested on: DU-145 prostate
SN12C renal = tested on: SN12C renal
OVCAR-8 ovarian = tested on: OVCAR-8 ovarian
A549 NSCLC = tested on: A549 NSCLC
SK-OV-3 ovarian = tested on: SK-OV-3 ovarian
MOLT-4 leukemia = tested on: MOLT-4 leukemia
SNB-19 CNS = tested on: SNB-19 CNS
NCI-H226 lung = tested on: NCI-H226 lung
MDA-MB-435 = tested on: MDA-MB-435
SNB-75 CNS = tested on: SNB-75 CNS
CAKI-1 renal = tested on: CAKI-1 renal
HL-60(TB) leukemia = tested on: HL-60(TB) leukemia
SK-MEL-5 melanoma = tested on: SK-MEL-5 melanoma
786-0 renal = tested on: 786-0 renal
NCI-H522 lung = tested on: NCI-H522 lung
HOP-92 NSCLC = tested on: HOP-92 NSCLC
UACC-62 melanoma = tested on: UACC-62 melanoma
NCI-H23 lung = tested on: NCI-H23 lung
K-562 leukemia = tested on: K-562 leukemia
NCI/ADR-RES ovarian = tested on: NCI/ADR-RES ovarian
HCT-116 colon = tested on: HCT-116 colon
NCI-H460 lung = tested on: NCI-H460 lung
OVCAR-5 ovarian = tested on: OVCAR-5 ovarian
SF-539 CNS = tested on: SF-539 CNS
EKVX NSCLC = tested on: EKVX NSCLC
UACC-257 melanoma = tested on: UACC-257 melanoma
SW-620 colon = tested on: SW-620 colon
OVCAR-3 ovarian = tested on: OVCAR-3 ovarian
UO-31 renal = tested on: UO-31 renal
A498 renal = tested on: A498 renal
MDA-N = tested on: MDA-N
HCC-2998 colon = tested on: HCC-2998 colon
HS 578T breast = tested on: HS 578T breast
MDA-MB-231 breast = tested on: MDA-MB-231 breast
PC-3 prostate = tested on: PC-3 prostate
KM12 colon = tested on: KM12 colon
MCF7 breast = tested on: MCF7 breast
U251 CNS = tested on: U251 CNS
HT29 colon = tested on: HT29 colon
SR leukemia = tested on: SR leukemia
LOX IMVI melanoma = tested on: LOX IMVI melanoma
HCT-15 colon = tested on: HCT-15 colon
BT-549 breast = tested on: BT-549 breast
M14 melanoma = tested on: M14 melanoma
RPMI-8226 leukemia = tested on: RPMI-8226 leukemia
OVCAR-4 ovarian = tested on: OVCAR-4 ovarian
IGROV1 ovarian = tested on: IGROV1 ovarian
CCRF-CEM leukemia = tested on: CCRF-CEM leukemia
COLO 205 colon = tested on: COLO 205 colon
TK-10 renal = tested on: TK-10 renal
SF-268 CNS = tested on: SF-268 CNS
MALME-3M melanoma = tested on: MALME-3M melanoma
SK-MEL-28 melanoma = tested on: SK-MEL-28 melanoma
SK-MEL-2 melanoma = tested on: SK-MEL-2 melanoma
RXF 393 renal = tested on: RXF 393 renal
SF-295 CNS = tested on: SF-295 CNS

Measured: TGI

COc1ccc(N=C2C(=Nc3ccc(OC)cc3)N(c3ccc(N(C)C)cc3)C(=S)N2c2ccc(OC)cc2)cc1
> 91.8 µM: SNB-75 CNS
> 52 µM: OVCAR-8 ovarian
> 58.1 µM: UACC-257 melanoma
not listed: RXF 393 renal | SF-295 CNS
> 100 µM: all other assays above

COc1cc(CCN(C)C)cc(OC)c1OC
not listed: 786-0 renal | UO-31 renal | MALME-3M melanoma | SK-MEL-28 melanoma
> 100 µM: all other assays above
